Experimental data as given in ChEMBL document CHEMBL5113503, “Synthesis and biological evaluation of 4-(4-aminophenyl)-6-methylisoxazolo[3,4-b] pyridin-3-amine covalent inhibitors as potential agents for the treatment of acute myeloid leukemia” (Bioorg Med Chem, 2022).

Columns and labels:
MV4-11 = experiment: Induction of apoptosis in human MV4-11 cells assessed as late apoptotic cells at 2.5 uM measured after 48 hrs by Annexin V-FITC/PI double staining based flow cytometric analysis (reference value: 12.03 %); type: functional
[1] = Cytotoxicity against human K562 cells assessed as cell growth inhibition measured after 72 hrs by CCK8 assay; type: toxicity, cell-based
[2] = biological target: T1, Receptor-type tyrosine-protein kinase FLT3 (Homo sapiens, UniProt P36888); experiment: Inhibition of FLT3 (unknown origin) preincubated with compound for 10 mins followed by substrate addition and measured after 1 hrs by ADP-Glo kinase assay
T1 sequence (P36888 whole entry): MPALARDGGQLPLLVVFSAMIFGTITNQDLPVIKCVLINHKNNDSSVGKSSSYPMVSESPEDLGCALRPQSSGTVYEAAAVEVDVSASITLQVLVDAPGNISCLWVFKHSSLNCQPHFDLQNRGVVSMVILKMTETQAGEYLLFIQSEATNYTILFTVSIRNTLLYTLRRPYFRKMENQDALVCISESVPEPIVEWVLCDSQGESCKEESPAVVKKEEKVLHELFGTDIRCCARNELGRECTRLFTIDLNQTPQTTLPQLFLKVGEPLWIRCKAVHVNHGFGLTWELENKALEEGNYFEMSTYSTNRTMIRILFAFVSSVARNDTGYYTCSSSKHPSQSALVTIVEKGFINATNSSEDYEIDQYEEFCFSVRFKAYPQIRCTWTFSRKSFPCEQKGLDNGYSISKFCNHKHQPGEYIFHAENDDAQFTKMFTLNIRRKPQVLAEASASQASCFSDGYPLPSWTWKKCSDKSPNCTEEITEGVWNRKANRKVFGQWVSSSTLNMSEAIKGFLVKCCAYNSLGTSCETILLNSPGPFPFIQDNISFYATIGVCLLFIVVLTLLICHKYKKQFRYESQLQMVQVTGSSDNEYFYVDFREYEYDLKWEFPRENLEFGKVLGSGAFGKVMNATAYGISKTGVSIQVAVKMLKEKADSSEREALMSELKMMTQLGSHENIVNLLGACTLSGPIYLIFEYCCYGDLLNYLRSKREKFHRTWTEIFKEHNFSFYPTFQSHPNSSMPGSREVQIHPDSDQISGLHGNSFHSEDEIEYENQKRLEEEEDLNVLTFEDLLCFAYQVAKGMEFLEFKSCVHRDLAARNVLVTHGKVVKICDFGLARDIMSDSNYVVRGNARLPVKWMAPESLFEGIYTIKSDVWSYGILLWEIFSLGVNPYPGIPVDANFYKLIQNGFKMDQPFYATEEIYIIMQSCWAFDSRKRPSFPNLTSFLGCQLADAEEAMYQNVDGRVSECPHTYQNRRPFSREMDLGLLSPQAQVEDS

IC50 [2]: 256 nM
SMILES: C=CC(=O)Nc1ccc(NC(=O)Nc2ccc(-c3cc(C)nc4noc(N)c34)cc2)cc1
Activity (MV4-11): 35.01%
IC50 at 72 h [1]: > 10000 nM
